Data set [1] deals with T1, Guinea pig lung LTC4 synthase (Cavia porcellus, UniProt A6XA80).
T1 construct: Guinea pig lung LTC4 synthase was used; from tissue; host or cells: guinea pig lung
T1 sequence (A6XA80 1-150): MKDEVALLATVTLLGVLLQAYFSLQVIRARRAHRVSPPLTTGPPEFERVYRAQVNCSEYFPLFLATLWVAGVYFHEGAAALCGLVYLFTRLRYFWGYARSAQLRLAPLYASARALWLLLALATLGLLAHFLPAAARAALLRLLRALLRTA
Briefly: Leukotriene C4 synthase inhibition (EIA). Type of data set: biochemical. As to conditions: highest concentration (1,000 μM/ml); solvent DMSO. As to the method:
Leukotriene C4 (LTC4) synthase is crucial in the formation of LTC4 from LTA4. Taken together with other assays for enzymes involved in the lipoxygenase pathway (e.g. 5-lipoxygenase, LTA4 hydrolase), a locus of action can be established, mechanism of agents' activities which inhibit the formation of the leukotrienes.
Guinea pig lung LTC4 synthase was used. Test compound and/or vehicle was preincubated with 180 μg/ml enzyme dissolved in phosphate buffer pH 7.8 for 15 minutes at 37° C. The reaction was initiated by addition of 2.5 μg/ml LTA4 methyl ester for another 30 minute incubation period and terminated by further addition of ice-cold methanol. Determination of the amount of LTC4 formed was read spectrophotometrically by enzyme immunoassay kit (EIA). Compounds was tested at the concentrations of 1,000; 100; 10; and 1 μM/ml. The used solvent was DMSO.

For data set [2], the system named is human mononuclear cells (MNC). Briefly: cells. Type of data set: cell-based.
Data set [3] has as its system Normal human fibroblasts derived from foreskin. Briefly: Collagen synthesis and total protein synthesis by human fibroblasts in vitro. It counts as cell-based. As to the method:
a) Neonatal human fibroblast culture was established from a sample of neonatal human foreskin obtained by circumcision. After removal of subcutaneous tissue by dissection, the sample was desegregated by trypsinization with 0.25% trypsin and 1 mM EDTA solution (Gibco). Released cells were propagated in 100 mm plastic tissue culture dishes (Corning) in incubator at 37° C. saturated with 5% CO2. The medium, changed twice weekly, was a mixture of 0.2 mg/ml calcium, 4500 mg/l glucose in Dulbecco's modified Eagle's medium (DMEM, Gibco) supplemented with 10% fetal bovine serum FBS (Gemini-Bio-Products), 0.292 mg/ml L-glutamine (Gibco) and antibiotic-antimycotic solution containing 100 U penicillin-G/ml, 100 mcg/ml streptomycin and 0.25 mcg/ml fungizione in normal saline (Gemini-Bio-Products). Primary culture cells were trypsinized. To achieve enough cells of the same passage, the cells were replanted two times during two weeks and transplanted in bigger dishes before incubation started. At density 5×10^5 NHK 98-009 of fibroblasts of passage 4 was transplanted in Petri dishes in DMEM medium. When cells achieved ca 50% of confluence they were treated with solutions of BAC-3 with 0; 1; 10; 100; 250; and 500 μg/ml and 50 μg/ml of ascorbic acid (Sigma). All solutions were filtrated through 0.2 μm filters (Fisher). The media with or without BAC-3 were changed once after two days. 100 μg of ascorbic acid were added each day in media until achieving final concentration of 50 μg/ml of ascorbic acid in each of Petri dishes. […]
Normal human fibroblasts derived from foreskin were cultured in T-25 flasks and were treated with BAC-3 at concentrations of 1 μg/ml, 10 μg/ml, and 100 μg/ml in the way previously described. […] One half of the sonicate was hydrolyzed in 6N HCl; hydroxyproline was measured in the hydrolisate to determine collagen synthesis. […] Total collagen per flask was determined multiplying the hydroxiproline value by 7.8. […]

In data set [4] the test system is TPA/pyr induced acute ear inflammation. Briefly: TPA/pyr induced acute ear inflammation. As to conditions: topical 0.1% solution. Type of data set: in vivo, Swiss-Webster mice. The text has this:
The inflammatory responses occur in three distinct phases, each apparently mediated by different mechanisms: an acute one characterized by local vasodilatation and increased capillary permeability, a subacute phase characterized by infiltration of leukocyte and phagocytic cells and a chronic proliferative phase, in which tissue degeneration and fibrosis occur. Acute inflammation generated by TPA (12-o-tetradecanoylforbolacetat/pyridine) induces an acute inflammatory reaction consisting of erythema, edema and polymorphonuclear leukocyte (PMN) infiltration The mechanism of anti-inflammatory mode of action of di-rhamnolipid BAC-3 is unknown. So far, it has been shown that Pseudomonas di-rhamnolipids stimulate, both chemotaxis and chemokinesis of leukocytes). In vitro studies examining the effects of pulmonary surfactant containing hydrophobic apopoproteins on human neutrophils have the important role of the protein component of the surfactant in enhancing the leukocyte chemotaxis, opsonizing bacteria, enhancing macrophage function, and stimulating antibody production. […] Correspondingly, it has been recognized that glycolipids (biosurfactants) through their virtue of hidrophilic head bind to proteins, i.e. receptors on cell membranes. […] It has been proposed that rhamnolipid increased the early recruitment of inflammatory cells to the site of inflammation without triggering a persistent, abnormal accumulation of neutrophils.
In the experiment it was proven that rhamnolipd (BAC-3) at concentration (1 mg/ml^−1, 0.1% w/v) was effective as a topical therapeutic anti-inflammatory agent in the TPA/pyr model of acute dermal ear inflammation in female Swiss-Webster mice over a time-course of 24 hours. The time of maximal reduction of inflammation was dependent on the time of treatment, with respect to induction.
Post treatment with BAC-3 two hour after inflammation reversed established inflammation with maximal effect after 11 hours. (32% lower inflammation in comparison with control). […]

In data set [5] the test system is DNCB induced delayed type hypersensitivity reactions. Briefly: Delayed type hypersensitivity (DTH) in DNCB sensitised nude guinea pigs. As to conditions: topical twice daily during 7 days; by day 7; preliminary data. It counts as in vivo, nude guinea pig. As to the method: The nude guinea pig is used as test animal because of different animal skins, nude guinea pig skin is claimed to be the one closest resembling human skin. […] In DNCB sensitised guinea pigs delayed type hypersensitivity reactions were induced with patches soaked with 0.25% (w/v) DNCB in ethanol/propylene glycol kept on the animals back for 24 hours. The test sites were treated twice daily during 7 days with: Dovonex (commercially available ointment with calcipotriene; 1% (w/w) BAC-3 in US petrolatum. Locobasis (commercially available ointment, identical as carrier for steroids; 1% (w/w) non purified BAC-3 (86%) in US petrolatum; US petrolatum; Preferid (commercially available steroid).

Data set [6] can be described thus: Preservation of structure during 10 years after production. It counts as physicochemical. As to conditions: under nitrogen N2 in glass bottles at room temperature. The text has this:
On the figure has been shown the purity of the rhamnolipid BAC-3 (FIG. 10) and mass spectrum (FIG. 11) ten years after production. The production of the rhamnolipid BAC-3 purity>98.5 is very expensive procedure. Therefore one of the most important task of rhamnolipid BAC-3 production is achieving clinically acceptable purity without using HPLC-MS equipment, except for control purposes of the purity and mass spectrum.

From US20120322751A1 (priority 2010, published 2012) come the findings set out here.

In brackets after ≈: the same amount, converted by molar mass.

Broadly, the inhibition is the percentage by which the read-out fell short of the control. The low end stands for a response near the control, the high end for a response far below the control.

In data set [1], `CCCCCCCC(CC(=O)O)OC(=O)CC(CCCCCCC)OC1OC(C)C(O)C(O)C1OC1OC(C)C(O)C(O)C1O` (stereo not shown) [BAC-3] displayed an inhibition at 1000 µM of 81%. Also, in data set [2], the “inhibition of MNC proliferation with SEB as stimulus” value was “almost no inhibition” and the “proliferation of MNC as response to different stimulants” value is given as “inhibited proliferation”. The IC50 in data set [2] (Homo sapiens, PHA at 1 μg/ml, printed 'at the concentration of 5 μg/ml', read-out: IC50, inhibition of MNC proliferation in response to PHA) was found to be 35 µg/mL (≈ 53.8 µM). Moreover, the “percent of protein synthesis dedicated to collagen synthesis” value in data set [3] (1, 10, 100 μg/ml, harvested day 4 and day 7, vs control cells, p<0.05 ANOVA) is recorded as “significantly reduced”. The “total collagen synthesis per flask” value in data set [3] (treated as in example 6, FIG. 9 (2a)) is listed as “decreases synthesis of collagen”. Further, in data set [3] (treated as in example 6, FIG. 9 (2b)), the “overall protein synthesis per flask” value was “increase in overall synthesis”. Also, the “decrease of inflammation vs control ear, pre-treatment” value in data set [4] (single dose 1 hour before TPA/pyr) stood at 15%. Moreover, the “lower inflammation vs control, post treatment” value in data set [4] (two hours after induction, maximal effect after 11 hours) amounted to 32%. In addition, the “inhibition of inflammation vs control ear, concurrent treatment” value in data set [4] (with TPA/pyr induction, at 6 hours) was “about 32%”. For the same molecule, the “state of DTH test area” value in data set [5] is “almost healed with only a slight erythema present”. Besides, the structure after storage result in data set [6] is listed as “did not change its structure”.

As for `C=C1/C(=C\C=C2/CCC[C@]3(C)[C@@H]([C@H](C)/C=C/[C@@H](O)C4CC4)CC[C@@H]23)C[C@@H](O)C[C@@H]1O` [calcipotriene, reference compound], in data set [5], the “state of DTH test area” value is “almost healed with only a slight erythema present”.
